Experimental findings from patent EP1117659B1, “SUBSTITUTED 3-CYANOQUINOLINES AS PROTEIN TYROSINE KINASES INHIBITORS” (Wyeth Holdings Corporation, priority 1998, dated 2000) are described below.

“And” between values parts separate entries of the source, which are not always exact repeats. Identical values can stand only once. Counter-ions that a name gives are not always drawn. Like-named read-outs stand apart in the source and are kept apart here.

What all share (type): biochemical
Test [1] has as its target T1, epidermal growth factor receptor kinase (EGF-R Kinase, recombinant enzyme; His-tagged cytoplasmic domain of EGFR) (Homo sapiens, UniProt P00533).
T1 construct: EGFR cDNA encoding amino acids 645 - 1186 preceded by Met-Ala-(His)6; Met-Ala-(His)6 (N); made in house; host or cells: Sf9 insect cells, recombinant baculovirus vHcEGFR52
In words: Inhibition of Epidermal Growth Factor Receptor Kinase (EGF-R) using recombinant enzyme, RR-SRC peptide phosphorylation, 33P-ATP. The following applies: for inhibition at 0.5 µM: read-out: %Inh @ 0.5 µM; for IC50: recombinant enzyme, 90 min at room temperature. The method, then: Representative test compounds were evaluated for their ability to inhibit the phosphorylation of the tyrosine residue of a peptide substrate catalyzed by the enzyme epidermal growth factor receptor kinase. The peptide substrate (RR-SRC) has the sequence arg-arg-leu-ile-glu-asp-ala-glu-tyr-ala-ala-arg-gly. The enzyme used in this test procedure is the His-tagged cytoplasmic domain of EGFR. A recombinant baculovirus (vHcEGFR52) was constructed containing the EGFR cDNA encoding amino acids 645 - 1186 preceded by Met-Ala-(His)6. Sf9 cells in 100 mm plates were infected at an moi of 10 pfu/cell and cells were harvested 48 h post infection. A cytoplasmic extract was prepared using 1% Triton X-100 and applied to Ni-NTA column. After washing the column with 20 mM imidazole, HcEGFR was eluted with 250 mM imidazole (in 50 mM Na2HPO4, pH 8.0, 300 mM NaCl). Fractions collected were dialyzed against 10 mM HEPES, pH 7.0, 50 mM NaCl, 10% glycerol, lug/mL antipain and leupeptin and 0.1 mM Pefabloc SC. The protein was frozen in dry ice/methanol and stored -70°C.
Test compounds were made into 10 mg/mL stock solutions in 100% dimethylsulfoxide (DMSO). Prior to experiment, stock solutions were diluted to 500 uM with 100% DMSO and then serially diluted to the desired concentration with HEPES buffer (30 mM HEPES pH 7.4).
For the enzyme reaction, 10 uL of each inhibitor (at various concentrations) were added to each well of a 96-well plate. To this was added 3 uL of enzyme (1:10 dilution in 10mM HEPES, pH 7.4 for final cone. of 1:120). This was allowed to sit for 10 min on ice and was followed by the addition of 5 ul peptide (80 uM final cone.), 10ul of 4X Buffer (Table A), 0.25 uL ^33P-ATP and 12 uL H2O. The reaction was allowed to run for 90 min at room temperature and was followed by spotting the entire volume on to precut P81 filter papers. The filter discs were washed 2X with 0.5% phosphoric acid and radioactivity was measured using a liquid scintillation counter.
The inhibition data for representative compounds of the invention are shown below in TABLE 1. […] The % inhibition of the test compound was determined for at least three different concentrations and the IC50 value was evaluated from the dose response curve. […] CPM(control) is in units of counts per minute and was a number expressing the amount of radiolabled ATP (γ-^33P) incorporated into the RR-SRC peptide substrate by the enzyme after 90 minutes at room temperature in the absence of test compound as measured by liquid scintillation counting. The CPM values were corrected for the background counts produced by ATP in the absence of the enzymatic reaction. […]

Test [2] deals with Epithelial Cell Kinase (ECK) (Homo sapiens, UniProt P29317). In words: Inhibition of Epithelial Cell Kinase (ECK), immobilized biotinylated peptide, HRP anti-phosphotyrosine readout. The following applies: IC50, substrate phosphorylation. The method, then:
In this standard pharmacological test procedure, a biotinylated peptide substrate is first immobilized on neutravidin-coated microtiter plates. The test drug, the Epithelial Cell Kinase (ECK), Mg^++, sodium vanadate (a protein tyrosine phosphatase inhibitor), and an appropriate buffer to maintain pH (7.2) are then added to the immobilized substrate-containing microtiter wells. ATP is then added to initiate phosphorylation. After incubation, the assay plates are washed with a suitable buffer leaving behind phosphorylated peptide which is exposed to horse radish peroxidase (HRP)-conjugated anti-phosphotyrosine monoclonal antibody. The antibody-treated plates are washed again and the HRP activity in individual wells is quantified as a reflection of degree of substrate phosphorylation. […] Multiple entries for a given compound indication it was tested multiple times.

Test [3] concerns the target T2, Kinase insert Domain containing Receptor (KDR: the catalytic domain of the VEGF receptor) (Homo sapiens, UniProt P35968).
T2 construct: KDR: the catalytic domain of the VEGF receptor
Nature of the test: Inhibition of Kinase insert Domain containing Receptor (KDR), radioactive phosphorylation of Glu:Tyr copolymer. The following applies: IC50, substrate phosphorylation. The method, then:
In this standard pharmacological test procedure, KDR protein is mixed, in the presence or absence of a inhibitor compound, with a substrate peptide to be phosphorylated (a copolymer of glutamic acid and tyrosine, E:Y :: 4:1) and other cofactors such as Mg^++ and sodium vanadate (a protein tyrosine phosphatase inhibitor) in an appropriate buffer to maintain pH (7.2). ATP and a radioactive tracer (either P^32- or P^33- labeled ATP) is then add to initiate phosphorylation. After incubation, the radioactive phosphate associated with the acid-insoluble fraction of the assay mixture is then quantified as reflection of substrate phosphorylation. […] Multiple entries for a given compound indication it was tested multiple times.

Test [4] deals with Recombinant human MEK 1 (MAPKK) / recombinant human ERK2 (MAPK) (Mek-Erk) (Homo sapiens, UniProt P28482+Q02750). Nature of the test: Mitogen Activated Protein Kinase (MAPK) assay, two component coupled Mek-Erk test.
Chain of Recombinant human MEK 1 (MAPKK) / recombinant human ERK2 (MAPK) (Mek-Erk) (P28482 2-360): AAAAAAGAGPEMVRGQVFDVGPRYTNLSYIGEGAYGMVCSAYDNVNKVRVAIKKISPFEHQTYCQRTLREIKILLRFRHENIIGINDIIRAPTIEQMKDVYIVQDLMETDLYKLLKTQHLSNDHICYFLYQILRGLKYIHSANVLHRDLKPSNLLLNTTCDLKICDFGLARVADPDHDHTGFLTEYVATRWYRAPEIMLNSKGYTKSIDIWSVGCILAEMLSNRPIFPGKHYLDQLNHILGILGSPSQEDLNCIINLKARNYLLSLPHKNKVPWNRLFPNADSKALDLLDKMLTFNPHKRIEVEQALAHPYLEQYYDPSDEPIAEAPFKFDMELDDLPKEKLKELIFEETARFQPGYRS
Chain of Recombinant human MEK 1 (MAPKK) / recombinant human ERK2 (MAPK) (Mek-Erk) (Q02750 whole entry): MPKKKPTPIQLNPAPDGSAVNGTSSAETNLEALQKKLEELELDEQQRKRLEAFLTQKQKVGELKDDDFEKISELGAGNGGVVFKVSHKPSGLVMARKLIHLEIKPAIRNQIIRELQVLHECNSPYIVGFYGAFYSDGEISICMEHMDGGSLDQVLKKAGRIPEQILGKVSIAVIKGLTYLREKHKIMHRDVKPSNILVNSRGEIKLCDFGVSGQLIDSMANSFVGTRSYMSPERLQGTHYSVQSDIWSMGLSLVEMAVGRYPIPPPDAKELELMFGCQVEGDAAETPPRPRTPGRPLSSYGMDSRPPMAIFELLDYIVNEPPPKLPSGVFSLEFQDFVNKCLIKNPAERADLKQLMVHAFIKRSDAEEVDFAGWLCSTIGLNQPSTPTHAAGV
Protocol: To evaluate inhibitors of the MAP (mitogen activated protein) kinase a two component coupled standard pharmacological test procedure, which measures phosphorylation of a serine/threonine residue in an appropriate sequence in the substrate in the presence and absence of a putative inhibitor, was used. Recombinant human MEK 1 (MAPKK) was first used to activate recombinant human ERK2 (MAPK) and the activated MAPK (ERK) was incubated with substrate (MBP peptide or MYC peptide) in the presence of ATP, Mg^+2 and radiolabeled ^33P ATP. The phosphorylated peptide was captured on a P 81 phosphocellulose filter (paper filter or embedded in microtiter plate) washed and counted by scintillation methods.
The peptide substrates used in the assay are MBP, peptide substrate ([sequence]), or synthetic Myc substrate, ([sequence]•5 TFA. The recombinant enzymes used were prepared as GST fusion proteins of human ERK 2 and human MEK 1. Inhibitor samples were prepared as 10X stocks in 10% DMSO and an appropriate aliquot was used to deliver either 10 ug/ml for a single point screening dose or 100, 10, 1, and 0.1 uM final concentration for a dose response curve. Final DMSO concentrations were less than or equal to 1%.
The reaction was run as follows in 50 mM Tris kinase buffer, pH 7.4 in a reaction volume of 50 ul. The appropriate volume of kinase buffer and inhibitor sample was added to the tube. Appropriate dilution of enzyme was delivered to give 2-5 ug recombinant MAPK (Erk ) per tube. The inhibitor was incubated with MAPK (Erk) for 30 min at 0° C. Recombinant Mek (MAPKK) ( 0.5-2.5 ug) or fully activated Mek (0.05-0.1 units) was added to activate the Erk and incubated for 30 min at 30° C. Then substrate and gamma ^33P ATP was were added to give a final concentration of 0.5- 1 mM MBPP or 250-500 uM Myc; 0.2-0.5 uCi gamma P 33 ATP/tube; 50 µM ATP final concentration. Samples were incubated at 30°C for 30 minutes and the reaction was stopped by adding 25 µl of ice cold 10 %TCA .After samples were chilled on ice for 30 min, 20 µl of sample was transferred onto P 81 phosphocellulose filter paper or appropriate MTP with embedded P 81 filter. Filter papers or MTP were washed 2 times with a large volume of 1% acetic acid, then 2 times with water. The filters or MTP were briefly air dried before addition of scintillant and samples were counted in the appropriate scintillation counter set up for reading ^33P isotope.
The raw data was captured as cpm. Sample replicates were averaged and corrected for background count. Mean cpm data was tabulated by group and % inhibition by a test compound was calculated as (corrected cpm control- corrected. cpm sample/control) X 100 = % inhibition.

T2 sequence (P35968 834-1162 limits assumed): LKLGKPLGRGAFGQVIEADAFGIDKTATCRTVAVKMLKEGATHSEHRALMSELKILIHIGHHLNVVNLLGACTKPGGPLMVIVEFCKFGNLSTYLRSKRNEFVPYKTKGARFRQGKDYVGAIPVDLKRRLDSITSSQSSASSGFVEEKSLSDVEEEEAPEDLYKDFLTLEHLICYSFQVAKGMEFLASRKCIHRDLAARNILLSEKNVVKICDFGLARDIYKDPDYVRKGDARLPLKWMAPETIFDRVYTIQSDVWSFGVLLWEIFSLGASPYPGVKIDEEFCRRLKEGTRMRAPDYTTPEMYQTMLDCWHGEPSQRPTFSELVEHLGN
Chain of Epithelial Cell Kinase (ECK) (P29317 24-976, species assumed): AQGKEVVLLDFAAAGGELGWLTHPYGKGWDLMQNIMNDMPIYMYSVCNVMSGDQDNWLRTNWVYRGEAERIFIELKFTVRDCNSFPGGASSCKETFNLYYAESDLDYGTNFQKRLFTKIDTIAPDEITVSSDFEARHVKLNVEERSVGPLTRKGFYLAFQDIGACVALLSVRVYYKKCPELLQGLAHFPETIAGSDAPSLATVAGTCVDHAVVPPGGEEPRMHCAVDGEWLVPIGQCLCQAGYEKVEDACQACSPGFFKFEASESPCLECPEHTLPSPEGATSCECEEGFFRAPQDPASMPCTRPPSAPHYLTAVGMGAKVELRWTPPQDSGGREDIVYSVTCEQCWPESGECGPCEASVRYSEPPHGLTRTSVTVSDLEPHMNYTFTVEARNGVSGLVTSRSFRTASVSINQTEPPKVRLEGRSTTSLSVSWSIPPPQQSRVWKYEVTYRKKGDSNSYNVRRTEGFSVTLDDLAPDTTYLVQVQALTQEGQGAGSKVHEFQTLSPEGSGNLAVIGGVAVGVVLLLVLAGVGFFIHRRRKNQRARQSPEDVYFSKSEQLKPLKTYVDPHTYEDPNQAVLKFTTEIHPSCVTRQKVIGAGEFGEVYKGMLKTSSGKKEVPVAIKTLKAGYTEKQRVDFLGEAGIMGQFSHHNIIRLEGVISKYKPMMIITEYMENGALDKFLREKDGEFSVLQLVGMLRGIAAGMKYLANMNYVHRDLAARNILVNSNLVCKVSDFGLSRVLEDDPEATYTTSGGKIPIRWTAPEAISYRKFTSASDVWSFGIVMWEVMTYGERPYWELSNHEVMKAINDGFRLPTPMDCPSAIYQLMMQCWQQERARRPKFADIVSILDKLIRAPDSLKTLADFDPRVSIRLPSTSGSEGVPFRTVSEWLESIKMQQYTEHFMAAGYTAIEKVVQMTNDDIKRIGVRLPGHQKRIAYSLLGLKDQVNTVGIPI

Turning to “4-(2,3-Dihydro-1H-indol-6-ylamino)-6,7-diethoxy-quinoline-3-carbonitrile [Example 96]”, in test [1] (0.5 µM concentration of test compound), the “%Inh @ 0.5 µM” value turned out to be 6%.

For the molecule `CCOc1cc2ncc(C#N)c(Nc3ccc4c(c3)OCO4)c2cc1OCC` [Example 98, 4-(Benzo[1,3]dioxol-5-ylamino)-6,7-diethoxy-quinoline-3-carbonitrile], the IC50 was greater than 2.65 µM in test [2]; 53 µM and > 2.65 µM in test [3].

For the molecule `COc1cc2ncc(C#N)c(Nc3ccc4c(c3)NCC4)c2cc1OC` [Example 113, 4-(2,3-Dihydro-1H-indol-6-ylamino)-6,7-methoxy-quinoline-3-carbonitrile], in test [3], the IC50 came out at 8.66 µM.

With `COc1cc2c(Nc3ccc4c(c3)NCC4)c(C#N)cnc2cc1OCCCc1ccncc1` [Example 119, 4-(2,3-Dihydro-1H-indol-6-ylamino)-6-methoxy-7-(3-pyridin-4-yl-propoxy)-quinoline-3-carbonitrile], the IC50 was 22.1 µM and > 2.21 µM in test [2]; 1.55 µM and 2.21 µM in test [3].

Regarding `N#Cc1cnc2cc3c(cc2c1Nc1ccc2cn[nH]c2c1)OCCO3` [Example 125, 9-(1H-Indazol-6-ylamino)-2,3-dihydro[1,4]dioxino[2,3-g]quinoline-8-carbonitrile], the IC50 in test [4] (read-out: Mek-Erk) amounted to 35 µM.

Consider `COc1cc2c(Nc3ccc4cn[nH]c4c3)c(C#N)cnc2c(OC)c1OC` [Example 128, 4-(1H-Indazol-6-ylamino)-6,7,8-trimethoxy-quinoline-3-carbonitrile], for which the IC50 in test [2] was greater than 53.3 µM; in test [3], greater than 79.9 µM; in test [4] (read-out: Mek-Erk) it was > 100 µM and 100 µM.

On to `COc1cc2ncc(C#N)c(Nc3cccc4[nH]ccc34)c2cc1OC` [Example 136, 4-(1H-Indol-4-ylamino)-6,7-dimethoxy-quinoline-3-carbonitrile], for which the inhibition at 0.5 µM in test [1] worked out at 33%. The IC50 in test [1] was greater than 1 µM; in test [2], 0.871 µM; in test [3], greater than 29 µM.

As to `COc1cc2ncc(C#N)c(Nc3ccc4[nH]ncc4c3)c2cc1OC` [Example 137, 4-(1H-Indazol-5-ylamino)-6,7-dimethoxy-quinoline-3-carbonitrile], the IC50 is 0.15 µM in test [1]; greater than 2.9 µM in test [2]; 29 µM and > 2.9 µM in test [3].

With `COc1ccc(OC)c2c(Nc3ccc4cn[nH]c4c3)c(C#N)cnc12` [Example 138, 4-(1H-Indazol-6-ylamino)-5,8-dimethoxy-quinoline-3-carbonitrile], the results for the IC50 in test [2], in test [3] and in test [4] (read-out: Mek-Erk) were greater than 29 µM, greater than 86.9 µM and greater than 100 µM, respectively.

On to `COc1cc2ncc(C#N)c(Nc3ccc4cn[nH]c4c3)c2cc1OCCCN1CCOCC1` [Example 139, 4-(1H-Indazol-6-ylamino)-7-methoxy-6-(3-morpholin-4-yl-propoxy)-quinoline-3-carbonitrile hydrochloride], for which the IC50 in test [2] is greater than 2.18 µM; in test [3], 21.8 µM and > 2.18 µM; in test [4] (read-out: Mek-Erk µM), 15 µM.

Turning to `COc1cc2ncc(C#N)c(Nc3ccc4nn[nH]c4c3)c2cc1OCCCN1CCOCC1` [Example 140, 4-(3H-Benzotriazol-5-ylamino)-7-methoxy-6-(3-morpholin-4-yl-propoxy)-quinoline-3-carbonitrile hydrochloride], the IC50 is 2.18 µM in test [2]; 22 µM and 15 µM in test [4] (read-out: Mek-Erk µM, hydrochloride).

Take `COc1ccc2c(Nc3ccc4[nH]ccc4c3)c(C#N)cnc2c1` [Example 146, 4-(1H -Indol-5-ylamino)-7-methoxy-quinoline-3-carbonitrile]: the IC50 in test [4] (read-out: Mek-Erk) was 3 µM.

In the case of `COc1cc2ncc(C#N)c(Nc3ccc4[nH]ccc4c3)c2cc1OC` [Example 150, 4-(1H -Indol-5-ylamino)-6,7-Dimethoxy-quinoline-3-carbonitrile], the IC50 in test [1] is 0.0015 µM and 0.004 µM; in test [2], greater than 29 µM; in test [3], 0.581 µM.

For the molecule `COc1cc2ncc(C#N)c(Nc3ccc4[nH]cnc4c3)c2cc1OC` [Example 151, 4-(1H -Benzoimidazol-5-ylamino)-6,7-dimethoxy-quinoline-3-carbonitrile], in test [1], the inhibition at 0.5 µM was found to be 34%. Further, the IC50 was greater than 1 µM in test [1], greater than 29 µM in test [2] and 29 µM in test [3].

Take `COc1cc2ncc(C#N)c(Nc3ccc4[nH]c(C)nc4c3)c2cc1OC` [Example 152, 6,7-Dimethoxy-4-(2-methyl-1H -benzoimidazol-5-ylamino)-quinoline-3-carbonitrile]: the inhibition at 0.5 µM in test [1] came to 24%. Moreover, the IC50 is greater than 1 µM in test [1], greater than 27.8 µM in test [2] and greater than 100 µM in test [4] (read-out: Mek-Erk).

Turning to `COc1cc2ncc(C#N)c(Nc3ccc(Cl)c4ccccc34)c2cc1OC` [Example 154, 4-(4-Chloro-naphthalen-1-ylamino)-6,7 -Dimethoxy-quinoline-3-carbonitrile], the IC50 in test [2] is 0.77 µM; in test [3], 12.8 µM and > 2.57 µM.

With `COc1cc2ncc(C#N)c(Nc3cccc4c3CCCC4)c2cc1OC` [Example 155, 6,7-Dimethoxy-4-(5,6,7,8,- tetrahydro-naphthalen-1-ylamino)-quinoline-3-carbonitrile], in test [4] (read-out: Mek-Erk), the IC50 stood at 4 µM.

For the molecule `COc1cc2c(Nc3ccc4cn[nH]c4c3)c(C#N)cnc2cc1OCCCl` [Example 166, 7-(2-Chloroethoxy)-4-(1H-indazol-6-ylamino)-6-methoxyquinoline-3-carbonitrile], the results for the IC50 in test [2] and in test [3] were 0.762 µM and greater than 2.54 µM, respectively.

For the molecule `COc1cc2c(Nc3ccc4cn[nH]c4c3)c(C#N)cnc2cc1OCCN(C)C` [Example 167, 7-(2-Dimethylaminoethoxy)-4-(1H-indazol-6-ylamino)-6-methoxyquinoline-3-carbonitrile], the inhibition at 0.5 µM in test [1] came to 0%. Also, the IC50 in test [1] is greater than 1 µM; in test [4] (read-out: Mek-Erk) it was 8 µM.

In the case of `COc1cc2c(Nc3ccc4cn[nH]c4c3)c(C#N)cnc2cc1OCCN1CCOCC1` [Example 168, 4-(1H-Indazol-6-ylamino)-6-methoxy-7-(2-morpholin-4-yl-ethoxy)quinoline-3-carbonitrile], the inhibition at 0.5 µM in test [1] amounted to 1%. The IC50 in test [1] was greater than 1 µM; in test [2], greater than 22.5 µM; in test [3], 4.5 µM.

As to `CCOc1cc2ncc(C#N)c(Nc3ccc(Sc4nccn4C)c(Cl)c3)c2cc1OCC` [Example 172, 4-[3-Chloro-4-(1-methyl-2-imidazolylthio)phenylamino]-6,7-diethoxy-3-quinolinecarbonitrile], the IC50 in test [1] is 0.09 µM.

For `COc1cc2ncc(C#N)c(Nc3ccc(Sc4nccn4C)c(Cl)c3)c2cc1OC` [Example 173, 4-[3-Chloro-4-(1-methyl-2-imidazolylthio)phenylamino]-6,7-dimethoxy-3-quinolinecarbonitrile], the IC50 in test [1] turned out to be 0.5 µM.

For `C=CC(=O)Nc1ccc2ncc(C#N)c(Nc3ccc(Sc4nccn4C)c(Cl)c3)c2c1` [Example 176, N-{4-[3-Chloro-4-(1-methyl-1H-imidazol-2-ylsulfanyl)-phenylamino]-3-cyano-quinolin-6-yl}-acrylamide], the IC50 in test [1] stood at 0.01 µM.
